Where “and” joins values, the source holds several entries; their conditions need not be identical. Identical values can stand only once. d = 2'-deoxy (DNA); m = 2'-O-methyl
Assays:
[1] = tested on: Human Glioblastoma Cancer (U-87MG) xenograft; assay: Histopathology of tumor samples with scoring; format: in vivo, athymic nude mice; parameters: key: 1: Few; 2: Moderate; 3: Large; conditions: individual animals; G3 APT20TTMG, G2 TMZ
Text: The fixed tissues were processed for routine paraffin embedding followed by sectioning (3-6 micron). The sections were stained with hematoxylin and eosin. The prepared slides were examined under microscope by the study pathologist to record histopathological findings in tumor samples, related to capsule formation, cell type, connective tissue stroma, apoptosis, necrosis, lipid content, nucleus-to-cytoplasmic (N:C) ratio, nuclei mitotic figures, tumor grade, and level of differentiation. Each histopathological finding and tumor volume were assigned a score ranging from 1 to 4 (Table 7). The sum of these scores for each sample was used to infer the tumor aggressiveness.

MCF-7 cell line [2] = assay: Annexin V/propidium iodide apoptosis assay; format: cell-based, Human; conditions: 0.25, 0.5, 1 μM; 24 hours; vs non-treated cells
Method: The apoptosis-inducing potential of ASMO APT20TTMG was evaluated using the method of double labeling of cells with Annexin V and propidium iodide. Annexin V is a peptide that has a high affinity for phosphatidyl serine, a phospholipid distributed asymmetrically in the inner leaflet of the lipid bilayer of membrane plasma under physiological conditions. During the process of cell death by apoptosis, phospholipids asymmetric distribution is lost and phosphatidyl serine is translocated to the outer leaflet of the plasma membrane through a process of externalization. The measurement of the exposure of phosphatidylserine could be detected by Annexin V conjugated to fluorochromes. On the other hand, propidium iodide is a DNA intercalator that only can penetrate the interior of the cell in cases where the selective permeability of the plasma membrane is compromised, which clearly occurs during several processes of cell death.
Pro-apoptotic potential of APT20TTMG was evaluated in the MCF-7 cell line, using the Apoptosis Detection with Annexin V/Propidium Iodide kit (eBioScience). First, cells were cultured in 24-well plates at a density of 1×10^5 cells/well for 24 hours for adhesion. […] Finally, the samples were labeled with Propidium Iodide and analyzed in a flow cytometer (BD FACSCanto II, BD Biosciences) through the acquisition of 10.000 gated events/sample.

MAPT = MAPT expression by qPCR in SK-N-SH; format: cell-based; conditions: 0.5 μM; for reduction of MAPT expression: relative to Lipofectamine 3000 only
Method: FIG. 27A-27B illustrates MAPT expression and tau quantification obtained after 24, 48, 96 and 144 hours of incubation with ASMO1 (0.5 μM) in neuroblastoma cell line.
At all time points cells were rinsed once with PBS, before proceeding with RNA extraction using the RNeasy Plus Kit (Qiagen). RNA (0.1-1 μg) was converted to cDNA using the SuperScript IV First-Strand Synthesis System (Thermo Fisher), following manufacturer instructions. After RNA removal, 5-10 ng of cDNA were amplified by qPCR. The following Taqman probes (Thermo Fisher) were used: Total TAU (MAPT, Assay ID: Hs00902193_m1), GAPDH (GAPDH, Assay ID: Hs99999905_m1). Gene expression was analyzed using the Applied Biosystems QuantStudio™ 12K Flex Real-Time PCR System. Quantification of gene expression was performed using the comparative threshold cycle (2^-ΔΔCT) Livak method, relative to Lipofectamine 3000 only treated cells. Gene expression was normalized to the reference gene GAPDH.

[3] = tested on: U87MG (Human Glioblastoma); assay: BrdU cell proliferation assay; format: cell-based
Method: In vitro effects of APT20TTMG on viability and proliferation of human cancer cell line U87MG (Human Glioblastoma) were also evaluated by MTT and BrdU assays, respectively. Cells were treated with APT20TTMG and Reference Items in technical triplicates (Experiment was done in 3 different sets) at various concentrations for 48 h, 96 h, and 144 h. APT20TTMG and Reference Items were read after every 48 h.
As shown in FIGS. 32-33, A MTT assay (FIG. 32) was also performed with another five different concentrations of APT20TTMG (0.003, 0.03, 0.3, 3, and 30 μM) and at 48, 96, and 144 hours of incubation. […] Finally, to confirm whether APT20TTMG is a cytotoxic or cytostatic molecule considering its ability to reduce cellular viability in certain concentrations, a cell proliferation assay (FIG. 33) with the U87-MG cell line was also performed in the same conditions as the MTT assay. […] Cells were plated and treated with 5 different concentrations (0.003, 0.03, 0.3, 3, and 30 μM). BrdU assay was performed after 48, 96, or 144 hours of incubation. Data are plotted as a percentage (%) of cell viability compared to the negative control group (vehicle). Results are expressed as Mean±SEM of three independent experiments performed in three technical replicates. Statistical analysis was performed using one-way ANOVA followed by Dunnett's multiple comparison test. *p<0.05, **p<0.01, ***p<0.001, ****p<0.0001.

MCF-7 cell line [4] = assay: Internalization of carboxyfluorescein-conjugated APT20TTMG by flow cytometry; format: cell-based, Human; conditions: 1 μM carboxyfluorescein conjugate
Method: To investigate the internalization of ASMO APT20TTMG by MCF-7 cell line, the quantification of intracellular fluorescence was measured by flow cytometry. For this aim, the ASMO APT20TTMG was conjugated to the fluorochrome carboxyfluorescein. It is assumed that the percentage of ASMO molecules internalized is presumably proportional to the quantified fluorescence signal detected inside the cells. The cell lines were cultured in 24-well plates for 24 hours at 5×10^4 cells per well. After that, the cells were incubated with ASMO1 prepared in culture medium without FBS at a concentration of 1 μM for 0.5, 1, 2, 4, and 6 hours. Untreated cells were used as negative controls. After treatment incubation, cells were washed twice with 1 mL of PBS/well and then incubated with 200 μL/well of trypsin/EDTA solution for approximately 3 minutes for disaggregation of adherent cells. Trypsin was neutralized by the addition of complete medium and cells were centrifuged at 1500 rpm for 5 minutes. Subsequently, the cells were washed with 2 mL/sample of PBS and centrifuged again at 1500 rpm for 5 minutes. […] The fluorescence of the cells, corresponding to the cellular uptake of the APT20TTMG labeled with carboxyfluorescein, was analyzed using a BD FACSCANTO II Flow cytometer (BD Biosciences, NJ, USA) through the acquisition of 10.000 gated events considering each sample.

Substance: APT20TTMG: engineered polynucleotide ASMO1, 24 nt, SEQ ID NO: 3 gtccactaacctttcaggccagcg; targeting moieties 5′-GTCCA-3′ and 5′-CG-3′, U1 snRNP recruiting moiety (GTCCACTAACCTTTCAGGCCAGCG; sugars from the 5' end m5 d14 m5, all phosphorothioate, methylation of C and T or U not given here)
- Score: Mitotic figures [1]: 1 (4×) and 3
- proportion of viable cells, recent/late apoptosis or necrosis (MCF-7 cell line [2]): no change in any of the evaluated parameters
- MAPT expression (MAPT; 24 hours): transient increase
- reduction of MAPT expression (MAPT; 96 h): 82±1.2%
- reduction of MAPT expression (MAPT; 144 h): 74±4.3%
- cell proliferation (BrdU) ([3]; 0.03 μM, first 48 hours): increase in cell proliferation
- cell proliferation (BrdU) ([3]; highest concentrations (0.3, 3, 30 μM), 144 hours): significant reduction in cell proliferation
- cell proliferation (BrdU) ([3]; highest concentrations (0.3, 3, 30 μM), first 48 hours): temporary increase in cell proliferation
- cell proliferation (BrdU) ([3]; lowest concentrations (0.003 and 0.03 μM), 144 hours): statistically significant decrease in proliferation
- internalization (MCF-7 cell line [4]; after 1 hour and subsequent period (to 6 h)): around 80%
- internalization (MCF-7 cell line [4]; first half hour): 75.3±1.4%

Source: patent US20260085315A1, “POLYNUCLEOTIDE COMPOSITIONS AND METHODS FOR TREATMENT OF CANCER” (APTAH BIO, INC., priority 2023, published 2026)
